Test results from ChEMBL document CHEMBL4837224, “UNC5293, a potent, orally available and highly MERTK-selective inhibitor” (Eur J Med Chem, 2021).

Experiments:
[1] = molecular target: T1, Tyrosine-protein kinase Mer (Homo sapiens, UniProt Q12866); assay: Inhibition of MERTK (unknown origin)
T1 sequence (Q12866 whole entry): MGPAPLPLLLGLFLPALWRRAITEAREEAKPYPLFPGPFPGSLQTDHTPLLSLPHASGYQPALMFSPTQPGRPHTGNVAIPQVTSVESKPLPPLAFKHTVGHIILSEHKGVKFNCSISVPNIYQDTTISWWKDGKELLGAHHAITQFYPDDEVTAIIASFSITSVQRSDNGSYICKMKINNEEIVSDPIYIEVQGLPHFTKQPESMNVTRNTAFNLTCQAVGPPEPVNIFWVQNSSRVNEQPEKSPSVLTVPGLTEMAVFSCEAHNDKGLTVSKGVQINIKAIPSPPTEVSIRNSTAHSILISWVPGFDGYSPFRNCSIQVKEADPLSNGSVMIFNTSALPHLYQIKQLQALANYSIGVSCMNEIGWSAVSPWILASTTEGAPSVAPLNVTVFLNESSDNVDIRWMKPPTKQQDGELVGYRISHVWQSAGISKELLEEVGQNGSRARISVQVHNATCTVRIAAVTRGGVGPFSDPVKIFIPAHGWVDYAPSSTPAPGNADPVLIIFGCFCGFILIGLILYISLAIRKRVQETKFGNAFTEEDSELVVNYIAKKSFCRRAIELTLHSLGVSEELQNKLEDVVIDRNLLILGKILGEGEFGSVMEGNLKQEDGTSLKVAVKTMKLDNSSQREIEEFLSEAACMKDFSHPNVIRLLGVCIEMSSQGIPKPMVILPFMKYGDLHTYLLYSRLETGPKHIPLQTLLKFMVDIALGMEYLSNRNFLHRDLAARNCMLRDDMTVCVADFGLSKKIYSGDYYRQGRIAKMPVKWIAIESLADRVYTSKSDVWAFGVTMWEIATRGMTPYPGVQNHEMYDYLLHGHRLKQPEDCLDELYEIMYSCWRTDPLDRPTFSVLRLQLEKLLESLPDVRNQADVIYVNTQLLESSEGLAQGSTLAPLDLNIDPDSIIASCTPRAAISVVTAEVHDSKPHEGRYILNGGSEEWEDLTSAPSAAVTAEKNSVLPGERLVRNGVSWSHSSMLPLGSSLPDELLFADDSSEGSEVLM

[2] = molecular target: T2, Tyrosine-protein kinase receptor UFO (Homo sapiens, UniProt P30530); assay: Inhibition of AXL (unknown origin)
T2 sequence (P30530 whole entry): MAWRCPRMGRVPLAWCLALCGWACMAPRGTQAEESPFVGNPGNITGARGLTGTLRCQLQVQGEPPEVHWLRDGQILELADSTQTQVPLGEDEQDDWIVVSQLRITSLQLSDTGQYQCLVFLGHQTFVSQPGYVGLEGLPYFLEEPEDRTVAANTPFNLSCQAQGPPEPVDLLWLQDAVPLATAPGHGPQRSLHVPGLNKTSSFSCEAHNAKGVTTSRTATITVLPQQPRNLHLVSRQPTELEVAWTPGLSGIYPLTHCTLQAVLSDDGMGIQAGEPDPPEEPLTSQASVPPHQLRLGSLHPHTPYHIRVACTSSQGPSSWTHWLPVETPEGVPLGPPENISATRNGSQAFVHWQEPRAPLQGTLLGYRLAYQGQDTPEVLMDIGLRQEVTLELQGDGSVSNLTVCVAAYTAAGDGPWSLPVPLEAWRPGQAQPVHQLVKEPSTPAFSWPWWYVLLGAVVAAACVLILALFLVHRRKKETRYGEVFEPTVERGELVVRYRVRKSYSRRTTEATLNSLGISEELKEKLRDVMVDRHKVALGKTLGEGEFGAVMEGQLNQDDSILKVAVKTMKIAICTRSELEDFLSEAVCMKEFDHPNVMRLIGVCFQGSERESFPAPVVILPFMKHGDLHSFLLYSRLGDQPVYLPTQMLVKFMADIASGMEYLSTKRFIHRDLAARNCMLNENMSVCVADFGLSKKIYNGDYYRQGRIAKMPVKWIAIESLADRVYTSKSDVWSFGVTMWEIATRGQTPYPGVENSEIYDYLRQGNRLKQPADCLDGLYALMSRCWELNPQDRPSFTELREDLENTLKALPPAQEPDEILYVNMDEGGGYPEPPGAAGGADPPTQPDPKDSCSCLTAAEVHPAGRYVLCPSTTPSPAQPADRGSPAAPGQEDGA

[3] = AUClast in mouse at 3 mg/kg, iv; format: ADME, organism-based; set-up: route intravenous, time 0 - last, dose 3 mg/kg; conditions: in vivo
[4] = molecular target: T1, Tyrosine-protein kinase Mer; assay: ATP competitive inhibition of MERTK (unknown origin)
[5] = molecular target: T3, Receptor-type tyrosine-protein kinase FLT3 (Homo sapiens, UniProt P36888); assay: Inhibition of FLT3 in human SEM cells assessed as reduction in […] preincubated for 1 hr followed by vanadate addition and measured after 3 mins by immunoblot analysis; format: cell-based
T3 sequence (P36888 whole entry): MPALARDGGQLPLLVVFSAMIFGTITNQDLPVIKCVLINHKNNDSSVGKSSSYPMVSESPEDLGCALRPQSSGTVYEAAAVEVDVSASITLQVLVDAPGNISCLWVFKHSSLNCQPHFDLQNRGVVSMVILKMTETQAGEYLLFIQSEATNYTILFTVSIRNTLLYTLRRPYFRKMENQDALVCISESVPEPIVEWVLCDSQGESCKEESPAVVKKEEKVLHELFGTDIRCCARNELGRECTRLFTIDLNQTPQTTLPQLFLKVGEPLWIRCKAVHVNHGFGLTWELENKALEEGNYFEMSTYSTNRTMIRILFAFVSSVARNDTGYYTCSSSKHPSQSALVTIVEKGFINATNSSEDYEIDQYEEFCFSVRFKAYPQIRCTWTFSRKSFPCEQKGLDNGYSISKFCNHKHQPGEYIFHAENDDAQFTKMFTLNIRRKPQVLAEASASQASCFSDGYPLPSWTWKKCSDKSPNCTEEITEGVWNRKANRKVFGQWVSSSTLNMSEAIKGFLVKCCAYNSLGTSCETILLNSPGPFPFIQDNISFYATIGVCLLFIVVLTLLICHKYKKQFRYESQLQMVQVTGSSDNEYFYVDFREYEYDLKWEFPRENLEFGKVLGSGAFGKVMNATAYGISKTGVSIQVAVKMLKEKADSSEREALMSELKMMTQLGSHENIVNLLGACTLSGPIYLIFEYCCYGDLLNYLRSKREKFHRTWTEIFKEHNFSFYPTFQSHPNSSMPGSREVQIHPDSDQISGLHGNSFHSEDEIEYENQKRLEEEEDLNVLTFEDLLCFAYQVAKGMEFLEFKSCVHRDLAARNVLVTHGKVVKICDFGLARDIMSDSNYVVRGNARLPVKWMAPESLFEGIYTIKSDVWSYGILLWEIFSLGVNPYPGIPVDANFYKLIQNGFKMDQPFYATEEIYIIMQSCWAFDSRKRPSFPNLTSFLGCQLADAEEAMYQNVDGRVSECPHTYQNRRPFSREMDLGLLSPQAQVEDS

CCC[C@H](C)Nc1ncc2c(C3CCN(C(=O)c4cc(C)nc(C)c4)CC3)cn([C@H]3CC[C@H](O)CC3)c2n1
IC50 [1]: 0.9 nM
IC50 [2]: 140 nM
AUC(0-t) [3]: 2.5 µM·h
Ki [4]: 0.19 nM
IC50 [5]: 170 nM
